For 3 molecules, IC50 and inhibition results are on record in patent EP4692094A1 (Beijing Konruns Pharmaceutical Co., Ltd., priority 2023, dated 2024).

One data set concerns the target T1, KAT5 (Homo sapiens, UniProt Q92993).
T1 construct: purchased signalChem K314-380G
Nature of the data set: Enzymatic activity assay for KAT5 acetyltransferase (TR-FRET, histone substrate H4). The following applies: KAT5 1.5 nM, H4 200 nM, AcCOA 2 µM. The data set is classed as biochemical. As to the method:
The acetylation effects of KAT6B on histone substrate H3, as well as KAT5, KAT7, and KAT8 on histone substrate H4, were determined using the TR-FRET (time-resolved fluorescence resonance energy transfer) method. The determination was performed according to experimental procedures similar to those in "Pharmacological Experiment I": 1.2 Preparation of compounds: The compounds prepared in the examples were each dissolved in dimethylsulfoxide to give solutions at a concentration of 10 mmol/L. • 1) The compounds in the examples were each diluted from 10 mmol/L stock solution to 0.2 mmol/L, i.e., 1 µL of the compound was added to 49 µL of DMSO, and 3-fold dilution was performed to give 10 concentrations. • 2) 50 nL of the test compounds were transferred to 384 reaction plates using Echo, two replicates for each compound, and the plates were centrifuged at a rotation speed of 1000 rpm for 1 min, the final concentration of dimethylsulfoxide (DMSO) being 0.5%. […]
For KAT8: • 3) 2.5 µL of the KAT8 enzyme solution at a final concentration of 10 nM was added to the 384 reaction plates in step 2), and the plates were centrifuged at 1000 rpm for 1 min and incubated at 25 °C for 10 min. • 4) 2.5 µL of […] at a final concentration of 300 nM and an AcCOA (acetyl-CoA) reaction solution at a final concentration of 2 µM were added to the 384 reaction plates in step 3), and the plates were centrifuged at a rotation speed of 1000 rpm for 1 min and incubated at 25 °C for 90 min. • 5) 5 µL of Eu-Ab& Ulight-SA detection solution was separately added to the 384 reaction plates in step 4) of the 4 groups described above, and the plates were centrifuged at 1000 rpm for 1 min and incubated at 25 °C for 60 min. • 6) The HTRF […] signals were read using a BMG high-throughput drug-screening multi-mode microplate reader.
The acetylation levels of the histones in the groups were analyzed by the GraphPad Prism 8 software. […]
(In general: Time-resolved FRET reads energy transfer from a long-lived donor to a nearby acceptor.)

A further data set addresses T2, CYP1A2 (Homo sapiens, UniProt P05177).
T2 construct: from tissue; host or cells: human liver microsomes
T2 sequence (P05177 1-516): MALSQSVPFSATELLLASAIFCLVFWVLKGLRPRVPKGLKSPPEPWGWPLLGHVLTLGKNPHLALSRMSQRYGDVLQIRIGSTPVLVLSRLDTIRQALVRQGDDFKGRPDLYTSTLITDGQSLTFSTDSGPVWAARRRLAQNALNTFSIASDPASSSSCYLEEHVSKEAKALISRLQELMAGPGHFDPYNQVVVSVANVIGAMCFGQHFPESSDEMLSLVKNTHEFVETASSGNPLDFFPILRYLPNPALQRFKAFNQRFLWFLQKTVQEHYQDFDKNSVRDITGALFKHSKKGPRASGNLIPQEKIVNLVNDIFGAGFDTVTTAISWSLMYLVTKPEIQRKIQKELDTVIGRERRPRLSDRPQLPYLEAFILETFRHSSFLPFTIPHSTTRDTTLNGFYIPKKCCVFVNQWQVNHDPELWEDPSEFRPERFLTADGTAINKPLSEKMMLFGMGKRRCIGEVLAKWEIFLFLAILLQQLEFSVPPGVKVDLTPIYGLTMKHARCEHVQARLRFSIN
Kind of data set: Inhibitory effect on P450 enzymes in vitro (human liver microsomes), CYP1A2. Format: in vitro ADME. The note with it: probe phenacetin, final concentration 10 µM, substrate phenacetin, read-out: % inhibition rate CYP1A2 (phenacetin). How it is done: 1.1 Preparation of compounds: The compounds prepared in the examples were each dissolved in dimethylsulfoxide to give solutions at a concentration of 2 mmol/L.
1.2 Test methods: • 1) Incubation system: human liver microsomes, a MgCl2 solution, a phosphate buffer solution, and a substrate solution were each added a 96-well deep-well plate and mixed homogenously. In the final incubation system, the concentration of the human liver microsomes was 0.2 mg/mL, and the final concentrations of the MgCl2 solution and the phosphate buffer solution were 5 mM and 100 mM, respectively. • 2) 1 µL of the substrate solution was added to the incubation system, and the final concentrations of CYP1A2 phenacetin, 2C8 paclitaxel […], 2C19 mephenytoin, 2D6 midazolam, and 3A midazolam substrates were 40 µM (phenacetin), 5 µM (paclitaxel), 50 µM (mephenytoin), 10 µM (mephenytoin), 5 µM (midazolam), and 50 µM […], respectively. • 3) 1 µL of the example compound or vehicle (DMSO) was added to the incubation system, and the incubation system was pre-warmed for 5 min in a 37 °C water bath before starting the reaction with 20 µL of 10 mM NADPH solution.
1.3 Sample treatment: Within the designated time (20 min for phenacetin, 10 min for paclitaxel, 20 min for mephenytoin, 20 min for dextromethorphan, 5 min for midazolam, and 10 min for testosterone), 400 µL of methanol containing the internal standard was added to terminate the reaction, and the mixture was vortexed and mixed homogeneously. Then, the deep-well plate was centrifuged at 3220 g and 4 °C for 40 min. 100 µL of the supernatant was transferred into a new plate, and 150 µL of purified water was added. The mixture was mixed homogenously for LC-MS/MS analysis. Table 11. Inhibitory effects of some compounds in the examples on CYP enzymes
A general note: Liver microsomes are a subcellular fraction often used to study metabolism.

Structures are written as SMILES.

T1 sequence (Q92993 whole entry): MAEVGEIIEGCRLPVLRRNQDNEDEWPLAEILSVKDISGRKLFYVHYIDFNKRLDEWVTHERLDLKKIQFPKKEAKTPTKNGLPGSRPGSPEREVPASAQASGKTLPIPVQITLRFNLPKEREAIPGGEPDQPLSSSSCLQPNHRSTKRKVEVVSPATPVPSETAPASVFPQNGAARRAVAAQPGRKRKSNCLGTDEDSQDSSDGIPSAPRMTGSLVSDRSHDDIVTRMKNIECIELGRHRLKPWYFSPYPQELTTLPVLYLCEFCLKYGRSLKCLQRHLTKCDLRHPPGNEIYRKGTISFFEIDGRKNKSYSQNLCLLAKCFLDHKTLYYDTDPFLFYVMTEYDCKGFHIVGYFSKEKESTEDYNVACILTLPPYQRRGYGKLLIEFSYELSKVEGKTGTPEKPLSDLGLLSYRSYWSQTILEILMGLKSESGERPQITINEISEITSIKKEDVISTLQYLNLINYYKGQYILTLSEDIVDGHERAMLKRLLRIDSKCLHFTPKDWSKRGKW

Broadly, the IC50 is the concentration that gives 50% inhibition. The low end stands for inhibition by little substance, the high end for a need for much substance. A word on the inhibition: it is the change of the read-out against control, counted positive when it falls. On KAT5, `COc1cc2c(cc1S(=O)(=O)Nc1noc3cc(Cn4cccn4)nc(OC)c13)CCCC2` [Example 2, N-(6-((1H-Pyrazol-1-yl)methyl)-4-methoxyisoxazolo[4,5-c]pyridin-3-yl)-3-methoxy-5,6,7,8-tetrahydronaphthalene-2-sulfonamide] yielded a half-inhibitory concentration (IC50) of 219 nM. On CYP1A2, the inhibition at 20 min, 10 µM was determined as 6.02%.
For `COc1ccc2ccoc2c1S(=O)(=O)Nc1noc2cc(Cn3cccn3)nc(OC)c12` [Example 10, N-(6-((1H-Pyrazol-1-yl)methyl)-4-methoxyisoxazolo[4,5-c]pyridin-3-yl)-6-methoxybenzofuran-7-sulfonamide], on KAT5, the IC50 was 66.4 nM. In addition, at CYP1A2, the inhibition at 20 min, 10 µM is -1.78%.
On the same counts, the results for `COc1cc2c(cc1S(=O)(=O)Nc1noc3cc(Cn4cccn4)nc(OC)c13)OCC2` [Example 59, N-(6-((1H-Pyrazol-1-yl)methyl)-4-methoxyisoxazolo[4,5-c]pyridin-3-yl)-5-methoxy-2,3-dihydrobenzofuran-6-sulfonamide] are 171 nM and 1.93%.
